Data as given in US20220009914A1, “Analogs of Nitrofuran Antibiotics to Combat Resistance” (The Trustees of Indiana University, priority 2020, published 2022).
Where two headings read alike, the source gives them in different places.

How the values were obtained:
E. coli GroEL/ES = target: T1, E. coli GroEL/ES (Escherichia coli, UniProt P0A6F5); assay: GroEL/ES-mediated dMDH refolding assay in the presence of E. coli NfsB nitroreductase; assay type: biochemical; details: for GroEL/ES inhibition in words: in the presence of E. coli NfsB
T1 construct: made in house; host or cells: GroEL in NEB 5-alpha E. coli; GroES in E. coli BL21 (DE3)
Procedure: Evaluating compounds for inhibition in the GroEL/ES-mediated dMDH refolding assay and native MDH activity counter-screen in the presence of E. coli NfsB nitroreductase. These assays were performed nearly identically to those mentioned above, but with a couple distinct modifications. For both assays, 10 μg/mL of the E. coli NfsB nitroreductase enzyme (Sigma product #N9284) was added to the initial GroEL/ES-dMDH solution. For the GroEL/ES-dMDH refolding assay, after stamping with compounds, 10 μL of a 2.4 mM NADH solution was added, followed by a 10 minute incubation period at 37° C. to bioactivate the nitrofuran analogs. The remainder of the assay was conducted as in our standard protocol where no NfsB nitroreductase was present. […] For the native MDH activity counter-screen in the presence of E. coli NfsB nitroreductase, the assay was performed as described above for the GroEL/ES-dMDH refolding assay with NfsB; however, compound addition to the assay plates was conducted after the EDTA quench step, followed by a 10 minute incubation period at 37° C. to bioactivate the nitrofuran analogs. […] Results presented represent the averages of IC50 values obtained from at least four replicates in each assay.
Evaluating analogs for inhibiting GroEL/ES-mediated substrate refolding functions in the presence of the E. coli NfsB type-1 nitroreductase. […] However, our standard GroEL/ES-mediated refolding assays and native substrate reporter counter-screens were conducted without nitroreductases present.

native MDH = target: T2, native MDH (Sus scrofa, UniProt P00346); assay: native MDH activity counter-screen in the presence of E. coli NfsB nitroreductase; assay type: biochemical, pig; details: with E. coli NfsB nitroreductase; read-out: Native MDH Activity w/NfsB IC50
T2 sequence (P00346 25-338): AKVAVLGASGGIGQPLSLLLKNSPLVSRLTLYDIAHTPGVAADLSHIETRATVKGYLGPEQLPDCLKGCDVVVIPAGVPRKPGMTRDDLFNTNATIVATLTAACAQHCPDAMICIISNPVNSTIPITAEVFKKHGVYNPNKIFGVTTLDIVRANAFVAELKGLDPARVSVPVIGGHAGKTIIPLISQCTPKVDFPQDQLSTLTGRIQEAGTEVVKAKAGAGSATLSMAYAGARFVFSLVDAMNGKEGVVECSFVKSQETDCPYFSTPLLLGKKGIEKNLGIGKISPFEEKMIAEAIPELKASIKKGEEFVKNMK
Procedure: Evaluating compounds for inhibition in the GroEL/ES-mediated dMDH refolding assay and native MDH activity counter-screen in the presence of E. coli NfsB nitroreductase. These assays were performed nearly identically to those mentioned above, but with a couple distinct modifications. […] The remainder of the assay was conducted as in our standard protocol where no NfsB nitroreductase was present. […] Results presented represent the averages of IC50 values obtained from at least four replicates in each assay.

[1] = test system: Enterococcus faecium strain NCTC 7171 (ATCC #19434); assay: bacterial proliferation assay, E. faecium; assay type: cell-based; details: read-out: Bacterial Proliferation EC50 E. faecium
Procedure: (§1) All compounds were evaluated for inhibiting the proliferation of E. coli and each of the ESKAPE bacteria. Results presented represent the averages of EC50 values obtained from at least four replicates. Evaluating compounds for inhibition of bacterial cell proliferation.
(§2) Growth Media: E. coli were grown with LB medium and all ESKAPE bacteria were grown in Brain Heart Infusion (BHI) medium (Becton, Dickinson and Company), with all liquid cultures supplemented with 25 mg/L Ca^2+ and 12.5 mg/L Mg^2+ to mimic physiological free concentrations of these cations. A 10 mg/mL Ca^2+ stock solution was prepared by dissolving 1.84 g of CaCl2.2H2O in 50 mL of deionized water, and a 10 mg/mL Mg^2+ stock solution was prepared by dissolving 4.18 g of MgCl2.6H2O in 50 mL deionized water—filter sterilized using 0.2 μm cellulose-acetate filters. 2.5 mL of the sterile 10 mg/mL Ca^2+ stock and 1.25 mL of the sterile 10 mg/mL Mg^2+ stock solutions were added per 1 L of autoclaved LB or BHI media to obtain 25 mg/L Ca^2+ and 12.5 mg/L Mg^2+ ions, respectively.
(§3) General Assay Protocol: Stock bacterial cultures were streaked onto LB or BHI agar plates and grown overnight at 37° C. Fresh aliquots of cation supplemented media were inoculated with single bacterial colonies and the cultures were grown overnight at 37° C. with shaking (240 rpm). The following morning, cultures were diluted 10-fold into fresh media and grown at 37° C. until bacteria had reached mid-log phase growth (OD600˜0.4-0.6). The cultures were then diluted into fresh media to achieve final OD600 readings of 0.017. Aliquots of these diluted cultures (30 μL) were added to clear, flat-bottom 384-well polystyrene plates that were previously stamped with 0.5 μL of test compounds in 20 μL of media (yielding initial OD600=0.01 bacterial cultures). All compounds were tested in dose-response with concentration ranges during the proliferation assays from 100 μM to 46 nM (3-fold dilution series). A second set of baseline control plates were prepared analogously, but without any bacteria added, to correct for possible compound absorbance and/or precipitation. […] Plates were then read at 600 nm using a Molecular Devices SpectraMax Plus384 microplate reader. […] Results presented represent the averages of EC50 values obtained from at least four replicates.
(§4) Evaluating analogs for inhibiting the growth of E. coli and the ESKAPE bacteria. Analogs were initially tested for antibacterial efficacy against representative strains of antibiotic-sensitive E. coli and the ESKAPE bacteria. To determine compound efficacy, bacterial proliferation assays were carried out in liquid media culture supplemented with physiological concentrations of free calcium and magnesium cations. For these assays, bacterial cultures (OD600=0.01) were exposed to test compounds in 8-point, 3-fold dilution series (100 μM to 46 nM concentration range), in 384-well plates. After addition of compounds to cultures, the plates were sealed with Breathe-Easy gas permeable membranes and allowed to grow to mid-log phase (OD600˜0.4-0.6), whereupon final OD600 readings were taken to assess for bacterial growth and inhibition.

[2] = test system: Pseudomonas aeruginosa strain NCTC 10332 (ATCC #10145); assay: bacterial proliferation assay, P. aeruginosa; assay type: cell-based; details: read-out: Bacterial Proliferation EC50 P. aeruginosa
Procedure: as §1, §2, §3, §4

[3] = with E. coli NfsB nitroreductase, read-out: NfsB-GroEL/ES-dMDH Refolding IC50

T1 sequence (P0A6F5 2-548): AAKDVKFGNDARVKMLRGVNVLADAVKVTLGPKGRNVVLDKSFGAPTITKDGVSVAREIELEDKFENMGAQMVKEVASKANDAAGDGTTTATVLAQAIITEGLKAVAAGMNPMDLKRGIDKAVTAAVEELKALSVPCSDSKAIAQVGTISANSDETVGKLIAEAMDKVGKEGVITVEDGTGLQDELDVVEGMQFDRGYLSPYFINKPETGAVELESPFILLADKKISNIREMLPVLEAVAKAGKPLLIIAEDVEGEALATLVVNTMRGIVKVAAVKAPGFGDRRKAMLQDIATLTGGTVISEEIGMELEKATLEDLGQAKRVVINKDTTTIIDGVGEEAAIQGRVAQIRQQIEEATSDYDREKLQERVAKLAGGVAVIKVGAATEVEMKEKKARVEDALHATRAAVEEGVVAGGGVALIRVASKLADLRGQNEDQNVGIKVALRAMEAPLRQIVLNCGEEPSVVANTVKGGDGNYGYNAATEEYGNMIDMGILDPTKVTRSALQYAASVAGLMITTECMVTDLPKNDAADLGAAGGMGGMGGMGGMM

Row | SMILES | IC50 (E. coli GroEL/ES) [µM] | IC50 (native MDH) [µM] | EC50 [1] [µM] | EC50 [2] [µM] | GroEL/ES inhibition in words (E. coli GroEL/ES) | IC50 (E. coli GroEL/ES; [3]) [µM]
1 | O=C(N/N=C/c1ccc(O)c2ncccc12)c1ccc(NS(=O)(=O)c2cccs2)cc1 [Compound 13, N-(4-(2-((8-hydroxyquinolin-5-yl)methylene)hydrazine-1-carbonyl)phenyl)thiophene-2-sulfonamide] | 1.9 | > 56 | > 100 | > 100 |  | 
2 | O=C(N/N=C/c1ccc(O)c2ncccc12)c1cccc2ccccc12 [Compound 9, N′-((8-hydroxyquinolin-5-yl)methylene)-1-naphthohydrazide] | 7.7 | > 56 | > 100 | > 100 |  | 
3 | O=C(N/N=C/c1ccc([N+](=O)[O-])o1)c1ccccc1Oc1ccccc1 [Compound 23, N′-((5-nitrofuran-2-yl)methylene)-2-phenoxybenzohydrazide] |  | > 56 | 11 | > 100 |  | 
4 | COc1ccc(C(=O)N/N=C/c2ccccc2)cc1 [Compound 37, N′-benzylidene-4-methoxybenzohydrazide] | > 83 | > 56 | > 100 | > 100 |  | 
5 | O=C(N/N=C/c1ccc(O)c2ncccc12)c1ccccc1 [Compound 5, N′-((8-hydroxyquinolin-5-yl)methylene)benzohydrazide] | > 83 | > 56 | > 100 | > 100 |  | 
6 | O=C(N/N=C/c1ccc(O)c2ncccc12)c1cccc(Oc2ccccc2)c1 [Compound 11, N′-((8-hydroxyquinolin-5-yl)methylene)-3-phenoxybenzohydrazide] | 21 | > 56 | > 100 | > 100 |  | 
7 | O=Cc1ccc(O)c2ncccc12 [Compound 40, reference compound] | > 83 | > 56 | 7.3 | > 100 |  | 
8 | O=C(N/N=C/c1ccc([N+](=O)[O-])o1)c1ccc(NS(=O)(=O)c2cccs2)cc1 [Compound 26, N-(4-(2-((5-nitrofuran-2-yl)methylene)hydrazine-1-carbonyl)phenyl)thiophene-2-sulfonamide] | 6 | > 56 | 11 | > 100 |  | 
9 | O=C(N/N=C/c1ccc(O)c2ncccc12)c1ccc(NS(=O)(=O)c2ccc(Br)cc2)cc1 [Compound 14, 4-bromo-N-(4-(2-((8-hydroxyquinolin-5-yl)methylene)hydrazine-1-carbonyl)phenyl)benzenesulfonamide] | 3.6 | > 56 | > 100 | > 100 |  | 
10 | COc1ccc(C(=O)N/N=C/c2ccc(O)c3ccccc23)cc1 [Compound 29, N′-((4-hydroxynaphthalen-1-yl)methylene)-4-methoxybenzohydrazide] | > 83 | > 56 | > 100 | > 100 |  | 
11 | CCN(CC)S(=O)(=O)c1cccc(C(=O)N/N=C/c2ccc([N+](=O)[O-])o2)c1 [Compound 25, N,N-diethyl-3-(2-((5-nitrofuran-2-yl)methylene)hydrazine-1-carbonyl)benzenesulfonamide] | 6 | > 56 | > 100 | > 100 |  | 
12 | CCOc1ccc(S(=O)(=O)Nc2ccc(C(=O)N/N=C/c3ccc(O)c4ncccc34)cc2)cc1 [Compound 15, 4-ethoxy-N-(4-(2-((8-hydroxyquinolin-5-yl)methylene)hydrazine-1-carbonyl)phenyl)benzenesulfonamide] | 3.1 | > 56 | > 100 | > 100 |  | 
13 | COc1ccc(C(=O)N/N=C/c2ccc(O)c3ncccc23)cc1 [Compound 1, N′-((8-hydroxyquinolin-5-yl)methylene)-4-methoxybenzohydrazide] | 66 | > 56 | > 100 |  |  | 
14 | O=C(N/N=C/c1ccc([N+](=O)[O-])o1)c1ccc(Cl)s1 [Compound 17, 5-chloro-N′-((5-nitrofuran-2-yl)methylene)thiophene-2-carbohydrazide] |  |  | 12 | > 100 | most potent at inhibiting GroEL/ES in the presence of NfsB | 3.2
15 | COc1ccc(C(=O)NN)cc1 [Compound 42, reference compound] | > 83 | > 56 | > 100 | > 100 |  | 
16 | O=C(N/N=C/c1ccc([N+](=O)[O-])o1)c1cccs1 [Compound 16, N′-((5-nitrofuran-2-yl)methylene)thiophene-2-carbohydrazide] |  |  | 24 | > 100 |  | 7.7
17 | COc1ccc(C(=O)N/N=C/c2ccc([N+](=O)[O-])o2)cc1 [Compound 20, 4-methoxy-N′-((5-nitrofuran-2-yl)methylene)benzohydrazide] |  |  | 22 | > 100 |  | 10
18 | O=C1CN(/N=C/c2ccc([N+](=O)[O-])o2)C(=O)N1 [Nitrofurantoin, reference compound] |  |  | 38 | > 100 | weak to moderate GroEL/ES inhibitors | 84
19 | CN(C)c1ccc(C(=O)N/N=C/c2ccc([N+](=O)[O-])o2)cc1 [Compound 21, 4-(dimethylamino)-N′-((5-nitrofuran-2-yl)methylene)benzohydrazide] |  |  | > 100 | > 100 |  | 12
20 | O=C(N/N=C/c1ccc([N+](=O)[O-])o1)c1ccncc1 [Compound 19, N′-((5-nitrofuran-2-yl)methylene)isonicotinohydrazide] |  |  | 13 | > 100 |  | 23
21 | O=C(N/N=C/c1ccc([N+](=O)[O-])o1)c1ccccc1 [Compound 18, N′-((5-nitrofuran-2-yl)methylene)benzohydrazide] |  |  | 31 | > 100 |  | 12
